Test results from the NIST ThermoML archive (doi:10.1021/acs.jced.7b00106).

Conditions: Liquid, Hot wire method

FC(F)(F)/C=C/Cl [(E)-1-chloro-3,3,3-trifluoroprop-1-ene]
Conditions	thermal conductivity [W/m/K]
203.56 K, 10316 kPa	0.1156
203.65 K, 10337 kPa	0.1151
203.67 K, 219 kPa	0.1135
203.67 K, 10365 kPa	0.116
203.68 K, 5190 kPa	0.1132
203.68 K, 10370 kPa	0.1166
203.76 K, 231 kPa	0.113
203.76 K, 10344 kPa	0.1159
203.77 K, 5194 kPa	0.1133
203.77 K, 10372 kPa	0.1156
203.91 K, 10339 kPa	0.1163
204.02 K, 228 kPa	0.1135
204.02 K, 5185 kPa	0.114
204.02 K, 10301 kPa	0.1153
204.02 K, 10366 kPa	0.1154
204.02 K, 10378 kPa	0.1158
204.12 K, 10382 kPa	0.1152
204.13 K, 232 kPa	0.1125
204.13 K, 5176 kPa	0.1137
204.13 K, 10374 kPa	0.1153
204.3 K, 10296 kPa	0.1148
204.4 K, 223 kPa	0.1124
204.4 K, 5171 kPa	0.1142
204.4 K, 10360 kPa	0.1158
204.41 K, 10375 kPa	0.1154
204.43 K, 10300 kPa	0.1153
204.53 K, 10368 kPa	0.1152
204.54 K, 5176 kPa	0.1138
204.54 K, 10353 kPa	0.115
204.55 K, 227 kPa	0.1121
204.71 K, 10305 kPa	0.115
204.81 K, 10351 kPa	0.1146
204.81 K, 10361 kPa	0.1153
204.82 K, 232 kPa	0.1125
204.82 K, 5179 kPa	0.1141
204.88 K, 10317 kPa	0.1155
204.97 K, 10365 kPa	0.1148
204.98 K, 5182 kPa	0.1135
204.98 K, 10343 kPa	0.1151
204.99 K, 223 kPa	0.1121
205.17 K, 10310 kPa	0.1155
205.25 K, 10392 kPa	0.1152
205.26 K, 10349 kPa	0.1152
205.27 K, 5170 kPa	0.1139
205.29 K, 230 kPa	0.1124
205.36 K, 10304 kPa	0.1149
205.44 K, 10383 kPa	0.1147
205.45 K, 10380 kPa	0.1147
205.46 K, 5164 kPa	0.1134
205.48 K, 239 kPa	0.1121
222.19 K, 65394 kPa	0.1242
222.21 K, 54365 kPa	0.1216
222.27 K, 44671 kPa	0.1193
222.28 K, 65396 kPa	0.1238
222.3 K, 35555 kPa	0.1171
222.32 K, 26424 kPa	0.1148
222.32 K, 54366 kPa	0.1215
222.35 K, 17783 kPa	0.1123
222.37 K, 44672 kPa	0.1196
222.39 K, 449 kPa	0.1078
222.39 K, 8723 kPa	0.1103
222.4 K, 35559 kPa	0.1171
222.42 K, 26428 kPa	0.1148
222.45 K, 17781 kPa	0.1124
222.49 K, 8727 kPa	0.1099
222.5 K, 449 kPa	0.1068
222.54 K, 65394 kPa	0.1248
222.57 K, 54367 kPa	0.1222
222.62 K, 44672 kPa	0.1196
222.67 K, 35561 kPa	0.1177
222.69 K, 54366 kPa	0.1219
222.7 K, 26430 kPa	0.1145
222.73 K, 17781 kPa	0.1124
222.75 K, 44676 kPa	0.1192
222.77 K, 8729 kPa	0.1105
222.79 K, 453 kPa	0.107
222.79 K, 26430 kPa	0.1147
222.79 K, 35560 kPa	0.1173
222.86 K, 17785 kPa	0.112
222.91 K, 8723 kPa	0.1098
222.91 K, 65386 kPa	0.1248
222.92 K, 456 kPa	0.1067
222.97 K, 54368 kPa	0.122
223.03 K, 44680 kPa	0.1196
223.06 K, 65383 kPa	0.1239
223.07 K, 35560 kPa	0.1178
223.11 K, 26433 kPa	0.1152
223.11 K, 54368 kPa	0.122
223.14 K, 17782 kPa	0.1124
223.17 K, 44685 kPa	0.1194
223.21 K, 8729 kPa	0.1098
223.22 K, 35566 kPa	0.1174
223.23 K, 454 kPa	0.1071
223.26 K, 26433 kPa	0.1147
223.3 K, 17785 kPa	0.112
223.34 K, 65385 kPa	0.1243
223.36 K, 8728 kPa	0.1097
223.39 K, 453 kPa	0.1069
223.39 K, 54369 kPa	0.1224
223.46 K, 44687 kPa	0.1198
223.5 K, 65379 kPa	0.1241
223.51 K, 35560 kPa	0.1174
223.56 K, 26434 kPa	0.1151
223.56 K, 54369 kPa	0.1215
223.6 K, 17788 kPa	0.1125
223.63 K, 44686 kPa	0.1196
223.67 K, 8730 kPa	0.1101
223.68 K, 35563 kPa	0.1172
223.71 K, 455 kPa	0.1073
223.73 K, 26431 kPa	0.1148
223.78 K, 17788 kPa	0.1121
223.79 K, 65376 kPa	0.1246
223.85 K, 54372 kPa	0.122
223.86 K, 8734 kPa	0.1093
223.89 K, 457 kPa	0.1068
223.93 K, 44690 kPa	0.1197
223.98 K, 35565 kPa	0.1178
223.98 K, 65378 kPa	0.124
224.04 K, 26437 kPa	0.1151
224.05 K, 54371 kPa	0.1216
224.1 K, 17783 kPa	0.1124
224.13 K, 44694 kPa	0.1195
224.18 K, 8734 kPa	0.1094
224.19 K, 35567 kPa	0.1173
224.23 K, 457 kPa	0.107
224.25 K, 26439 kPa	0.1146
224.31 K, 17787 kPa	0.1119
224.39 K, 8734 kPa	0.1092
224.45 K, 456 kPa	0.1066
241.66 K, 13434 kPa	0.1054
241.67 K, 7098 kPa	0.1036
241.69 K, 586 kPa	0.1011
241.75 K, 13448 kPa	0.1051
241.78 K, 7107 kPa	0.1033
241.79 K, 578 kPa	0.1008
241.92 K, 53262 kPa	0.1169
241.93 K, 63858 kPa	0.1199
241.94 K, 36063 kPa	0.1121
241.94 K, 43857 kPa	0.1153
241.99 K, 28061 kPa	0.1109
242.03 K, 20422 kPa	0.1077
242.03 K, 53260 kPa	0.1171
242.03 K, 63849 kPa	0.1192
242.04 K, 43848 kPa	0.114
